Source: patent US20040234610A1, “Medical device and method for inhalation of aerosolized drug with heliox” (priority 2001, published 2004)
Values joined by “and” are separate entries in the source; they are usually repeats but may differ in a detail not shown here. Equal entries are not always repeated.

How the values were obtained:
asthma patients = test: Pilot study, albuterol nebulized with heliox vs oxygen through open mouthpiece and T-piece system, spirometry; format: in vivo, human; conditions: open mouthpiece and T-piece adapter system
Procedure: A pilot study was conducted using an open system, including a mouthpiece and T-piece adapter ([…], Allegiance Healthcare Corp., McGaw Park, Ill.), to nebulize albuterol.

[1] = system: adult patients with severe acute exacerbation of asthma; test: Same randomized study: vital signs, pulse oximetry, hospital admissions; format: in vivo, human; conditions: for % change HR post neb 1 / % change HR post neb 2 / % change HR post neb 3: mean ± SD; for Hospital admission rate: P=0.81
Description: The heliox delivery system consisted of a facemask connected to a Y-piece with the nebulizer (Airlife™ Misty-Neb™ Nebulizer) on one limb and a non-rebreather bag on the other limb (as shown in FIG. 1). Heliox flow to the nebulizer was set at 10 liters/minute (via an oxygen calibrated flow meter thus equivalent to 18 L/min Heliox flow). A separate flow of 10 liters/minute of heliox (via an oxygen calibrated flow meter thus equivalent to 18 L/min Heliox flow) was delivered to the non-rebreather bag. […] Each treatment continued until the nebulizer was dry—a period of approximately ten minutes, followed by a fifteen minute washout period. The total time for the study was approximately 90 minutes. Corticosteroid therapy for asthma exacerbations was directed by the emergency room physicians, who were not directly involved in the study.
Demographic data, chronic asthma medications, emergency room corticosteroid administration, vital signs (heart rate, mean arterial pressure, respiratory rate), oxygen saturation by pulse oximetry, emergency room length of stay and hospital admissions from the emergency room were recorded for all patients. Data are expressed as mean±SD when normally distributed and median (interquartile range) when not normally distributed. Interval data were compared using a two-tailed Student's t test or Mann Whitney U test according to normality of distribution, categorical data were compared using Chi square or Fisher Exact test when appropriate. […] The Student-Newman-Keuls test was used to compare differences between heliox and control groups after each nebulization treatment when appropriate. […] A 25% difference in percent change in FEV1 between the control and heliox groups was considered clinically important. Using a standard deviation of 28% (based on preliminary work), an a error of 0.05 and a β error of 0.20, it was estimated that a total of 42 patients (21 in each group) would be needed to avoid a type II error. […] In this situation, a P value of <0.0167 was considered to indicate statistical significance.

[2] = Nebulized particle size distribution by Anderson Cascade Impactor, RES-Q-Neb (T and Y design) vs HOPE nebulizer; format: physicochemical
Procedure: A study was conducted to compare the performance of two embodiments of the heliox nebulization system described herein (called the RES-Q-Neb™ Nebulizer) with a commercially available nebulizer (HOPE™, B&B Medical Technologies, Inc., Orangevale, Calif., USA) that is driven by air.
Measurements were done using an Anderson Cascade Impactor (ACI) operated at an air flow rate of 28.3 L/min. The nebulizers were connected one at a time to the same tee piece and collar. The ACI consisted of eight stages, a backup filter, and an inlet (USP throat).
Gas flows through the nebulizers and impactor were controlled with rotameters, which were set with the DryCal Flow Calubrator (BIOS International Co., Pomton Plains, N.J.).
Heliox (80% helium, 20% oxygen) at 18 L/min was used to drive the RES-Q-Neb Nebulizer and another 18 L/min of the heliox was introduced into the system at the reservoir bag side port. […] The HOPE nebulizer was driven with compressed air at 10 L/min (as directed in its included label and instructions), and 18 L/min of heliox was introduced into the system at a side port, as shown in FIG. 10.
A pre-running time was used for each test to stabilize the generation of aerosol. The RES-Q-Neb nebulizer was pre-run for 15 s, and the HOPE nebulizer was pre-run for 30 s. Six tests were run with the RES-Q-Neb nebulizer at the same conditions (3 with the “Y” adaptor and 3 with the “T” adaptor) and five tests were run with the HOPE nebulizer at the same conditions.
After each test, the ACI and empty nebulizers were disassembled and washed with deionized water. The wash water was collected and the amount of drug remaining or collected was determined using spectrophotometric analysis at 224 nm.
The particle sizes are expressed as 50% mass median aerodynamic diameters (MMAD).

[3] = HOPE nebulizer, compressed air 10 L/min nebulizer + heliox 18 L/min side port
[4] = HOPE nebulizer, compressed air 10 L/min nebulizer + heliox 18 L/min side port, mean of 5 tests
[5] = HOPE nebulizer, compressed air 10 L/min nebulizer + heliox 18 L/min side port, single tests, listed as Albuterol sulfate
[6] = RES-Q-Neb T design, heliox 18 L/min nebulizer + 18 L/min side port
[7] = RES-Q-Neb T design, heliox 18 L/min nebulizer + 18 L/min side port, mean of 3 tests
[8] = RES-Q-Neb T design, heliox 18 L/min nebulizer + 18 L/min side port, single tests, listed as Albuterol sulfate
[9] = RES-Q-Neb Y design, heliox 18 L/min nebulizer + 18 L/min side port (18-18 lpm)
[10] = RES-Q-Neb Y design, heliox 18 L/min nebulizer + 18 L/min side port, mean of 3 tests
[11] = RES-Q-Neb Y design, heliox 18 L/min nebulizer + 18 L/min side port, single tests, listed as Albuterol sulfate

For `CC(C)(C)NCC(O)c1ccc(O)c(CO)c1` (centres unmarked) [albuterol], the “differences in spirometry between heliox and oxygen albuterol nebulization” value (asthma patients) was “no differences in spirometry between heliox and oxygen albuterol nebulization were detected”, the “differences in other vital signs or pulse oximetry, heliox vs control” value ([1]; MAP, RR, SpO2, at any point during the study) was “no other significant differences in any vital signs or in pulse oximetry between the groups” and the “% change HR post neb 1” value ([1]; control (oxygen)) was −8.7 ± 7.4%. For the same compound, the “% change HR post neb 2” value ([1]; control (oxygen)) was −4.6 ± 8.7%, the “% change HR post neb 3” value ([1]; control (oxygen)) was −2.7 ± 12.7% and the Hospital admission rate ([1]; control group (oxygen)) was 6 of 22. The Hospital admission rate ([1]; heliox group) was 6 of 23, the “% change HR post neb 1” value ([1]; heliox, P 0.01 vs control) was −0.9 ± 7.8% and the “% change HR post neb 3” value ([1]; heliox, P 0.01 vs control) was 5.6 ± 12.0%. For the same compound, the “% change HR post neb 2” value ([1]; heliox, P 0.08 vs control) was 1.0 ± 11.3%, the “0.7 ≦ Mean Fraction < 5.8 μm” value [2, 3] was 0.503 and the “Mean Fraction < 0.7 μm” value [2, 3] was 0.052. The “Mean Fraction at Midpoint = 1.52 μm” value [2, 3] was 0.227, the “Mean Fraction ≧ 5.8 μm” value [2, 3] was 0.446 and the “Mean Fraction, Collar” value [2, 4] was 0.009. The “Mean Fraction, Filter (cut-size <0.4 micron)” value (from here on “Mean Fraction, Filter”) [2, 4] was 0.015, the “Mean Fraction, Stage 0 (cut-size 9 micron)” value [2, 4] was 0.110 and the “Mean Fraction, Stage 1 (cut-size 5.8 micron)” value [2, 4] was 0.151. The “Mean Fraction, Stage 2 (cut-size 4.7 micron)” value [2, 4] was 0.044, the “Mean Fraction, Stage 3 (cut-size 3.3 micron)” value [2, 4] was 0.099 and the “Mean Fraction, Stage 4 (cut-size 2.1 micron)” value [2, 4] was 0.119. The “Mean Fraction, Stage 5 (cut-size 1.1 micron)” value [2, 4] was 0.227, the “Mean Fraction, Stage 6 (cut-size 0.7 micron)” value [2, 4] was 0.014 and the “Mean Fraction, Stage 7 (cut-size 0.4 micron)” value [2, 4] was 0.037. The “Mean Fraction, Tee Piece” value [2, 4] was 0.060, the “Mean Fraction, Throat (cut-size >9 micron)” value (“Mean Fraction, Throat” below) [2, 4] was 0.034 and the “Mean Fraction, Tube” value [2, 4] was 0.082. The “Fraction, Stage 1 (cut-size 5.8 micron)” value [2, 5] was 0.139 and 0.164 and 0.154 and 0.138 and 0.160, the “Fraction, Stage 2 (cut-size 4.7 micron)” value [2, 5] was 0.039 and 0.047 and 0.044 and 0.045 and the “Fraction, Stage 3 (cut-size 3.3 micron)” value [2, 5] was 0.088 and 0.110 and 0.109 and 0.090 and 0.099. For the same compound, the “Fraction, Tee Piece” value [2, 5] was 0.066 and 0.056 and 0.058 and 0.052 and 0.069, the “Fraction, Throat (cut-size >9 micron)” value [2, 5] was 0.033 and 0.037 and 0.036 and 0.030 and 0.035 and the “Fraction, Tube” value [2, 5] was 0.105 and 0.077 and 0.073 and 0.081 and 0.074. For the same compound, the “0.7 ≦ Mean Fraction < 5.8 μm” value [2, 6] was 0.697, the “Mean Fraction < 0.7 μm” value [2, 6] was 0.218 and the “Mean Fraction at Midpoint = 1.52 μm” value [2, 6] was 0.519. The “Mean Fraction ≧ 5.8 μm” value [2, 6] was 0.086, the mean output rate [2, 6] was 0.54 mL/min and the “Mean Fraction, Adapter” value [2, 7] was 0.033. For the same compound, the “Mean Fraction, Collar” value [2, 7] was 0.008, the “Mean Fraction, Filter” value [2, 7] was 0.044 and the “Mean Fraction, Stage 0 (cut-size 9 micron)” value [2, 7] was 0.010. For the same compound, the “Mean Fraction, Stage 1 (cut-size 5.8 micron)” value [2, 7] was 0.015, the “Mean Fraction, Stage 2 (cut-size 4.7 micron)” value [2, 7] was 0.005 and the “Mean Fraction, Stage 3 (cut-size 3.3 micron)” value [2, 7] was 0.009. The “Mean Fraction, Stage 4 (cut-size 2.1 micron)” value [2, 7] was 0.061, the “Mean Fraction, Stage 5 (cut-size 1.1 micron)” value [2, 7] was 0.519 and the “Mean Fraction, Stage 6 (cut-size 0.7 micron)” value [2, 7] was 0.103. For the same compound, the “Mean Fraction, Stage 7 (cut-size 0.4 micron)” value [2, 7] was 0.174, the “Mean Fraction, T-Piece” value [2, 7] was 0.017 and the “Mean Fraction, Throat” value [2, 7] was 0.003. The “Fraction, Filter (cut-size <0.4 micron)” value [2, 8] was 0.037 and 0.049 and 0.045, the “Fraction, Stage 7 (cut-size 0.4 micron)” value [2, 8] was 0.148 and 0.166 and 0.207 and the mean output rate ([2]; RES-Q-Neb Y design, heliox 18 L/min nebulizer + 18 L/min side port) was 0.59 mL/min. The “0.7 ≦ Mean Fraction < 5.8 μm” value [2, 9] was 0.657, the “Mean Fraction < 0.7 μm” value [2, 9] was 0.239 and the “Mean Fraction at Midpoint = 1.52 μm” value [2, 9] was 0.422. For the same compound, the “Mean Fraction ≧ 5.8 μm” value [2, 9] was 0.105, the “Mean Fraction, Adapter” value [2, 10] was 0.040 and the “Mean Fraction, Collar” value [2, 10] was 0.009. The “Mean Fraction, Filter” value [2, 10] was 0.053, the “Mean Fraction, Stage 0 (cut-size 9 micron)” value [2, 10] was 0.012 and the “Mean Fraction, Stage 1 (cut-size 5.8 micron)” value [2, 10] was 0.019. For the same compound, the “Mean Fraction, Stage 2 (cut-size 4.7 micron)” value [2, 10] was 0.007, the “Mean Fraction, Stage 3 (cut-size 3.3 micron)” value [2, 10] was 0.010 and the “Mean Fraction, Stage 4 (cut-size 2.1 micron)” value [2, 10] was 0.072. For the same compound, the “Mean Fraction, Stage 5 (cut-size 1.1 micron)” value [2, 10] was 0.422, the “Mean Fraction, Stage 6 (cut-size 0.7 micron)” value [2, 10] was 0.146 and the “Mean Fraction, Stage 7 (cut-size 0.4 micron)” value [2, 10] was 0.186. For the same compound, the “Mean Fraction, Throat” value [2, 10] was 0.004, the “Mean Fraction, Y-Piece” value [2, 10] was 0.021 and the “Fraction, Filter (cut-size <0.4 micron)” value [2, 11] was 0.056 and 0.060 and 0.043. The “Fraction, Stage 1 (cut-size 5.8 micron)” value [2, 11] was 0.014 and 0.023 and 0.020, the “Fraction, Stage 6 (cut-size 0.7 micron)” value [2, 11] was 0.148 and 0.144 and the “Fraction, Stage 7 (cut-size 0.4 micron)” value [2, 11] was 0.169 and 0.180 and 0.208. For the same compound, the “Fraction, Y-Piece” value [2, 11] was 0.026 and 0.022 and 0.015, the “less particles >5.8 μm, present device/method vs HOPE nebulizer” value ([2]; less than HOPE) was “approximately 34%” and the “greater fraction of particles ≥0.7 and <5.8 μm (breathable range), present device/method vs HOPE nebulizer” value ([2]; more than HOPE) was “approximately 20%”. The “more particles <0.7 μm, present device/method vs HOPE nebulizer” value ([2]; more than HOPE) was “about 15%” and the “more particles with a midpoint diameter of 1.52 μm, present device/method vs HOPE nebulizer” value ([2]; more than HOPE) was “approximately 22%”.
